From patent US20240287107A1, “PRODRUGS OF DIMETHYLTRYPTAMINE AND DERIVATIVES THEREOF” (priority 2022, published 2024)

Test: Stability in mouse plasma
Format: in vitro ADME
Method: Chemical and plasma stability of prodrug Compound 1 was evaluated and the results enumerated in Table 7 and Table 8, respectively. PK studies of prodrug Compound 1 and metabolite (VLS-02-23-10) in mice were also conducted and both plasma exposure and brain exposure were analyzed as shown in FIGS. 1A-1C and FIGS. 2A-2B, respectively.

| SMILES | T½ [h] |
| --- | --- |
| C[N+](C)(CCc1c[nH]c2ccccc12)COP(=O)([O-])O [Compound 1, ((2-(1H-indol-3-yl)ethyl)dimethyl-λ^4-azaneyl)methyl hydrogen phosphate] | 9.4723 |
| CC(C)[N+](C)(CCOC(=O)C1c2ccccc2Oc2ccccc21)C(C)C [Propantheline] | 0.5682 |
